Laboratory results as given in PubChem BioAssay AID248 (DTP/NCI, 2004).
Several values for one entry are separate records, joined by “and”; a condition that tells them apart may be missing. Identical values can stand only once. Inconclusive results and toxic doses are left out. Rule as the data show it: active = T/C of 150% or more; inactive = T/C below 125%.

Test system: L1210 leukemia ip in BDF1 mice, survival T/C
Test: NCI In Vivo Anticancer Drug Screen. Data for tumor model L1210 Leukemia (intraperitoneal) in B6D2F1 (BDF1) mice
Conditions: endpoint: mean survival time, higher = longer survival
Summary of the method: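 Ratio derived from survival: compound-dosed mice over vehicle-dosed mice, all bearing a transplantable tumor.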

[1] = dose: 50.0 mg/kg/injection, schedule: Q01DX001 (ip), vehicle: saline
[2] = dose: 100.0 mg/kg/injection, schedule: Q01DX001 (ip), vehicle: saline
[3] = dose: 12.5 mg/kg/injection, schedule: Q04DX003 (ip), vehicle: saline

Measured: T/C

COC(=O)C1CC23C=CCN4CC(C2C)C2(c5ccccc5NC12)C43 (configuration not stated)
inactive: dose: 0.03 mg/kg/injection, schedule: Q01DX001 (ip), vehicle: saline 101 % of control | dose: 0.06 mg/kg/injection, schedule: Q01DX001 (ip), vehicle: saline 98 % of control | dose: 0.13 mg/kg/injection, schedule: Q01DX001 (ip), vehicle: saline 93 % of control | dose: 0.25 mg/kg/injection, schedule: Q01DX001 (ip), vehicle: saline 101 % of control | dose: 0.5 mg/kg/injection, schedule: Q01DX001 (ip), vehicle: saline 97 % of control | dose: 1.0 mg/kg/injection, schedule: Q01DX001 (ip), vehicle: saline 97 % of control | dose: 2.0 mg/kg/injection, schedule: Q01DX001 (ip), vehicle: saline 98 % of control | dose: 25.0 mg/kg/injection, schedule: Q01DX001 (ip), vehicle: saline 101 % of control | [1] 95 % of control | [2] 101 % of control

C1=C(c2ccccc2)N(Cc2ccccc2)C(c2ccccc2)=CN1Cc1ccccc1
inactive: dose: 50.0 mg/kg/injection, schedule: Q04DX002 (ip), vehicle: saline with Tween-80 105 % of control | dose: 100.0 mg/kg/injection, schedule: Q04DX002 (ip), vehicle: Klucel (hydroxypropylcellulose) (HPC) 107 % of control | dose: 100.0 mg/kg/injection, schedule: Q04DX002 (ip), vehicle: saline with Tween-80 96 % of control | dose: 200.0 mg/kg/injection, schedule: Q04DX002 (ip), vehicle: Klucel (hydroxypropylcellulose) (HPC) 96 % of control | dose: 200.0 mg/kg/injection, schedule: Q04DX002 (ip), vehicle: saline with Tween-80 96 % of control | dose: 400.0 mg/kg/injection, schedule: Q04DX002 (ip), vehicle: Klucel (hydroxypropylcellulose) (HPC) 111 % of control

CCCCC[As](=O)(O)O
inactive: dose: 1.5 mg/kg/injection, schedule: Q01DX001 (ip), vehicle: carboxymethylcellulose (CMC) 104 % of control | dose: 3.0 mg/kg/injection, schedule: Q01DX001 (ip), vehicle: carboxymethylcellulose (CMC) 102 % of control | dose: 6.0 mg/kg/injection, schedule: Q01DX001 (ip), vehicle: carboxymethylcellulose (CMC) 113 % of control

CC(=O)/C=C/c1ccccc1O
inactive: dose: 75.0 mg/kg/injection, schedule: Q04DX002 (ip), vehicle: gum acacia 98 % of control | dose: 150.0 mg/kg/injection, schedule: Q04DX002 (ip), vehicle: gum acacia 100 % of control | dose: 300.0 mg/kg/injection, schedule: Q04DX002 (ip), vehicle: gum acacia 100 % of control

Cc1c(C)c(C)c(C(=O)O)c(C)c1C
inactive: dose: 50.0 mg/kg/injection, schedule: Q01DX009 (ip), vehicle: saline with Tween-80 93 % of control | dose: 100.0 mg/kg/injection, schedule: Q01DX009 (ip), vehicle: saline with Tween-80 90 % of control | dose: 200.0 mg/kg/injection, schedule: Q01DX009 (ip), vehicle: saline with Tween-80 93 % of control

CCOc1cc(/C=N/NC(=S)NC23CC4CC(CC(C4)C2)C3)ccc1O
inactive: dose: 75.0 mg/kg/injection, schedule: Q01DX001 (ip), vehicle: acetone 101 % of control | dose: 150.0 mg/kg/injection, schedule: Q01DX001 (ip), vehicle: acetone 92 % of control | dose: 300.0 mg/kg/injection, schedule: Q01DX001 (ip), vehicle: acetone 94 % of control

CCOP(=O)(OCC)OCc1cnc(SC)nc1N
inactive: [1] 99 % of control | [2] 108 % of control

C[N+]1(C)CCC(OC(=O)C(O)(c2ccccc2)C2CCCC2)C1 (configuration not stated)
inactive: dose: 100.0 mg/kg/injection, schedule: Q04DX003 (ip), vehicle: saline with Tween-80 100 % of control

O=C1C(N2CCCCC2)=C(N2CC2)C(=O)C(N2CCCCC2)=C1N1CC1
inactive: dose: 0.39 mg/kg/injection, schedule: Q04DX003 (ip), vehicle: saline 94 % of control and 96 % of control | dose: 0.78 mg/kg/injection, schedule: Q04DX003 (ip), vehicle: saline 100 % of control and 103 % of control | dose: 1.56 mg/kg/injection, schedule: Q04DX003 (ip), vehicle: saline 103 % of control and 107 % of control | dose: 3.12 mg/kg/injection, schedule: Q04DX003 (ip), vehicle: saline 103 % of control and 107 % of control | dose: 6.25 mg/kg/injection, schedule: Q04DX003 (ip), vehicle: saline 96 % of control and 100 % of control | dose: 10.0 mg/kg/injection, schedule: Q01DX001 (ip), vehicle: saline 86 % of control | [3] 103 % of control and 122 % of control | dose: 20.0 mg/kg/injection, schedule: Q01DX001 (ip), vehicle: saline 99 % of control | dose: 35.0 mg/kg/injection, schedule: Q04DX003 (ip), vehicle: saline 101 % of control | dose: 40.0 mg/kg/injection, schedule: Q01DX001 (ip), vehicle: saline 93 % of control | dose: 55.0 mg/kg/injection, schedule: Q04DX003 (ip), vehicle: saline 90 % of control | dose: 80.0 mg/kg/injection, schedule: Q01DX001 (ip), vehicle: saline 108 % of control | dose: 80.0 mg/kg/injection, schedule: Q04DX003 (ip), vehicle: saline 88 % of control

CCC(CC)(C1CCC(O)CC1)C1CCC(O)CC1 (configuration not stated)
inactive: dose: 75.0 mg/kg/injection, schedule: Q01DX001 (ip), vehicle: carboxymethylcellulose (CMC) 93 % of control | dose: 150.0 mg/kg/injection, schedule: Q01DX001 (ip), vehicle: carboxymethylcellulose (CMC) 91 % of control | dose: 300.0 mg/kg/injection, schedule: Q01DX001 (ip), vehicle: carboxymethylcellulose (CMC) 89 % of control

CCC[CH2][Sn]([Br])([c]1ccccc1)[c]1ccccc1
inactive: dose: 0.39 mg/kg/injection, schedule: Q01DX009 (ip), vehicle: saline with Tween-80 92 % of control | dose: 0.78 mg/kg/injection, schedule: Q01DX009 (ip), vehicle: saline with Tween-80 101 % of control | dose: 1.56 mg/kg/injection, schedule: Q01DX009 (ip), vehicle: saline with Tween-80 89 % of control

NC(CCl)=NCCCCN=C(N)CCl
inactive: dose: 12.5 mg/kg/injection, schedule: Q01DX009 (ip), vehicle: saline 108 % of control | dose: 12.5 mg/kg/injection, schedule: Q04DX002 (ip), vehicle: saline 100 % of control | dose: 25.0 mg/kg/injection, schedule: Q01DX009 (ip), vehicle: saline 101 % of control | dose: 25.0 mg/kg/injection, schedule: Q04DX002 (ip), vehicle: saline 124 % of control

CC(=O)OCC1OC(O)C(NC(=O)C(F)(F)F)C(OC(C)=O)C1OC(C)=O (configuration not stated)
inactive: [3] 109 % of control | dose: 25.0 mg/kg/injection, schedule: Q04DX003 (ip), vehicle: saline 96 % of control

O=C(Nc1ccc(F)c([N+](=O)[O-])c1)c1ccc2c(c1)C(=O)OC2=O
inactive: [2] 99 % of control | dose: 100.0 mg/kg/injection, schedule: Q01DX009 (ip), vehicle: saline 102 % of control and 92 % of control | dose: 100.0 mg/kg/injection, schedule: Q04DX002 (ip), vehicle: saline 104 % of control and 109 % of control | dose: 100.0 mg/kg/injection, schedule: Q04DX003 (ip), vehicle: saline 106 % of control | dose: 200.0 mg/kg/injection, schedule: Q01DX001 (ip), vehicle: saline 99 % of control | dose: 200.0 mg/kg/injection, schedule: Q01DX009 (ip), vehicle: saline 100 % of control and 92 % of control | dose: 200.0 mg/kg/injection, schedule: Q04DX002 (ip), vehicle: saline 96 % of control and 104 % of control | dose: 200.0 mg/kg/injection, schedule: Q04DX003 (ip), vehicle: saline 111 % of control | dose: 400.0 mg/kg/injection, schedule: Q01DX001 (ip), vehicle: saline 104 % of control | dose: 400.0 mg/kg/injection, schedule: Q01DX009 (ip), vehicle: saline 105 % of control and 92 % of control | dose: 400.0 mg/kg/injection, schedule: Q04DX002 (ip), vehicle: saline 96 % of control and 104 % of control | dose: 400.0 mg/kg/injection, schedule: Q04DX003 (ip), vehicle: saline 103 % of control

CCOc1ccccc1/C=N\NC(=S)Nc1ccc2cn[nH]c2c1
inactive: dose: 50.0 mg/kg/injection, schedule: Q01DX001 (ip), vehicle: carboxymethylcellulose (CMC) 96 % of control | dose: 100.0 mg/kg/injection, schedule: Q01DX001 (ip), vehicle: carboxymethylcellulose (CMC) 100 % of control | dose: 200.0 mg/kg/injection, schedule: Q01DX001 (ip), vehicle: carboxymethylcellulose (CMC) 102 % of control | dose: 400.0 mg/kg/injection, schedule: Q01DX001 (ip), vehicle: carboxymethylcellulose (CMC) 94 % of control
